Test results published in ChEMBL document CHEMBL5038625, “Application of the dual-tail approach for the design and synthesis of novel Thiopyrimidine-Benzenesulfonamide hybrids as selective carbonic anhydrase inhibitors” (Eur J Med Chem, 2022).

Columns and labels:
SR = test: Antiproliferative activity against human SR cells assessed as cell growth inhibition at 10 uM incubated for 24 hrs by sulforhodamine B assay; assay type: functional; conditions: read-out: GI
MDA-MB-231 = test: Induction of apoptosis in human MDA-MB-231 cells assessed as late apoptotic cells measured after 48 hrs by Annexin-V-FITC/propidium iodide staining based flow cytometry (reference value: 0.91%); assay type: functional

COc1ccc(OC)c(-c2nc(SCC(=O)c3ccc(Br)cc3)nc(Nc3ccc(S(N)(=O)=O)cc3)c2C#N)c1
inhibition of growth at 10 µM (SR): 86.1%
Activity (MDA-MB-231): 5.2%
